The source of these data is patent publication US8039490B2, “Benzoyl-piperidine derivatives as dual modulators of the 5-HT2A and D3 receptors” (Hoffmann-La Roche Inc., priority 2006, dated 2011).

Experiment [1] concerns the target T1, human D3 dopamine receptor (Homo sapiens, UniProt P35462).
T1 construct: expressed in transfected cells; host or cells: HEK-293 EBNA cells (transient transfection), membrane preparation
Briefly: Radioligand binding, human D3 receptor ([3H]-spiperone). Particulars: first value of the cell; membranes of transfected HEK-293 EBNA cells, 0.5 nM [3H]-spiperone; read-out: Ki(nM) D3/5HT2A/D2: D3. How it is done: (§1) The cells were harvested 48 h post-transfection, washed three times with cold PBS and stored at −80° C. prior to use. The pellet was suspended in cold 50 mM Tris-HCl buffer containing 10 mM EDTA (pH 7.4) and homogenized with a Polytron (Kinematica AG, Basel, Switzerland) for 20-30 sec at 12.000 rpm. After centrifugation at 48.000×g for 30 min at 4° C., the pellet was resuspended in cold 10 mM Tris-HCl buffer containing 0.1 mM EDTA (pH 7.4), homogenized, and centrifuged as above. This pellet was further resuspended in a smaller volume of ice cold 10 mM Tris-HCl buffer containing 0.1 mM EDTA (pH 7.4) and homogenized with a Polytron for 20-30 sec at 12.000 rpm. The protein content of this homogenate was determined with the Bio-Rad (Bradford) Protein Assay (Biorad Laboratories GmbH, München, Germany) according to the instructions of the manufacturer using gamma globulin as the standard. This homogenate was stored at −80° C. in aliquots and thawed immediately prior to use.
(§2) Aliquots of membrane preparations were thawed at RT, resupended in assay buffer (D2, D3: 50 mM Tris-HCl, 120 mM NaCl, 5 mM MgCl2, 1 mM EDTA, 5 mM KCl, 1.5 mM CaCl2, pH=7.4; 5-HT2A: 50 mM Tris-HCl, 10 mM MgCl2, 1 mM EGTA, pH=7.4), homogenized with a Polytron for 20-30 sec at 12.000 rpm and adjusted to a final concentration of approximately 7.5 μg protein/well (D2, D3) and 15 μg protein/well (5-HT2A), respectively.
(§3) The binding affinity (Ki) of the compounds was determined using radioligand binding. […] The nonspecific binding was determined with equally composed reaction mixtures in the presence of 10 μM unlabelled spiperone. Per well 45 μl of Microscint 40 (Perkin Elmer, Schwerzenbach, Switzerland) was added, plates for sealed, shaken for 20 min and counted for 3 min on a Topcount Microplate Scintillation Counter (Canberra Packard SA, Zürich, Switzerland) with quenching correction.
(§4) The CPM value for each duplicate of a concentration of competing compound was averaged (y1), then the % specific binding was calculated according to the equation (((y1−non-specific)/(total binding-non-specific))×100). Graphs were plotted with the % specific binding using XLfit, a curve fitting program that iteratively plots the data using Levenburg Marquardt algorithm. The single site competition analysis equation used was y=A+((B−A)/(+((x/C)^D))), where y is the % specific binding, A is the minimum y, B is the maximum y, C is the IC50, x is the log10 of the concentration of the competing compound and D is the slope of the curve (the Hill Coefficient). […] The affinity constant (Ki) was calculated using the Cheng-Prusoff equation KI =(IC50/1+([L]/Kd), where [L] is the concentration of radioligand and Kd is the dissociation constant of the radioligand at the receptor as determined by the saturation isotherm.

Experiment [2] concerns the target T2, human D2 dopamine receptor (Homo sapiens, UniProt P14416).
T2 construct: expressed in transfected cells; host or cells: HEK-293 EBNA cells (transient transfection), membrane preparation
Briefly: Radioligand binding, human D2 receptor ([3H]-spiperone). Particulars: third value of the cell; membranes of transfected HEK-293 EBNA cells, 0.7 nM [3H]-spiperone; read-out: Ki(nM) D3/5HT2A/D2: D2. Here is the method:
as §1, §2, §3, §4

The target in experiment [3] is T3, human 5-HT2A serotonin receptor (Homo sapiens, UniProt P28223).
T3 construct: expressed in transfected cells; host or cells: HEK-293 EBNA cells (transient transfection), membrane preparation
Briefly: Radioligand binding, human 5-HT2A receptor ([3H]-ketanserin). Particulars: second value of the cell; membranes of transfected HEK-293 EBNA cells, 1.1 nM [3H]-ketanserin; read-out: Ki(nM) D3/5HT2A/D2: 5HT2A. How it is done:
as §1, §2, §3, §4

T1 sequence (P35462 whole entry): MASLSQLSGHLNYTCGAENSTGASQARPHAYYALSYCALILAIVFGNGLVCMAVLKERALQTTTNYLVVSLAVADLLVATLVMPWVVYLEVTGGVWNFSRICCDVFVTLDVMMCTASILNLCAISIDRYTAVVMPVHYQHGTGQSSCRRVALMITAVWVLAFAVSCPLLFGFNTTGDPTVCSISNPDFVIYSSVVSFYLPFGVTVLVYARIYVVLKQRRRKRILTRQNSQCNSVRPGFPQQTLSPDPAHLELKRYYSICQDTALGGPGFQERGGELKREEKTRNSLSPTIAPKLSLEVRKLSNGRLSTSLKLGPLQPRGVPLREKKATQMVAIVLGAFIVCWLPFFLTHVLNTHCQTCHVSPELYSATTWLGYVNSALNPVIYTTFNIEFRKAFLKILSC
T2 sequence (P14416 whole entry): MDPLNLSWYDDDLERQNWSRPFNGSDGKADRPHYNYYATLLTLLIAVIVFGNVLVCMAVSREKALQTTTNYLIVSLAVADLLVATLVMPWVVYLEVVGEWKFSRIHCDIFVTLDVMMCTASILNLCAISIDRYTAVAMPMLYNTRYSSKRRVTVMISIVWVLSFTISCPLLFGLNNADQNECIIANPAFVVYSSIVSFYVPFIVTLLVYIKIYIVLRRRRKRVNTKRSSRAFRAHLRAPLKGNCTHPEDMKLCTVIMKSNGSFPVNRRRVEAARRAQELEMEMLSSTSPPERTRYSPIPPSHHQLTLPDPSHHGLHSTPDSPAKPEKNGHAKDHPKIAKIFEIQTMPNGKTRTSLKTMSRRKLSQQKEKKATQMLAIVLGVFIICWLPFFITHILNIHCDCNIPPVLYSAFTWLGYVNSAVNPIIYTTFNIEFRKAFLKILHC
T3 sequence (P28223 whole entry): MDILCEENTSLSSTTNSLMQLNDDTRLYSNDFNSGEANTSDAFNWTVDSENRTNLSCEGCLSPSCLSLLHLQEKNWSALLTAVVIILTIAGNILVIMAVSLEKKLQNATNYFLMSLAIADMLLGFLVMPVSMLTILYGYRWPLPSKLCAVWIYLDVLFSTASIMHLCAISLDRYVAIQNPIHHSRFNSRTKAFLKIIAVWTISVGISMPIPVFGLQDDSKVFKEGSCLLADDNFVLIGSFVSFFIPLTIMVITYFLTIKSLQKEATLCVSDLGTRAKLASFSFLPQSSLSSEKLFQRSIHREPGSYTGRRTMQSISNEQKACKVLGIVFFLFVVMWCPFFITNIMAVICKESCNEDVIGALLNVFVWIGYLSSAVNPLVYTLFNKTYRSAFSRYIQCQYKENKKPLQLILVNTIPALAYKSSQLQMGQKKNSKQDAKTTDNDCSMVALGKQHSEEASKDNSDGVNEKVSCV

In the case of `O=C(N[C@H]1CC[C@H](CCN2CCC(O)(C(=O)c3ccccc3)CC2)CC1)c1ccnc2ccccc12` [Example 33, Quinoline-4-carboxylic acid trans-{4-[2-(4-benzoyl-4-hydroxy-piperidin-1-yl)-ethyl]-cyclohexyl}-amide], the results for the Ki in experiment [1], in experiment [2] and in experiment [3] were 110 nM, 1980 nM and 65 nM, respectively.
For `O=C(N[C@H]1CC[C@H](CCN2CCC(F)(C(=O)c3ccccc3)CC2)CC1)c1ccnc2ccccc12` [Example 34, Quinoline-4-carboxylic acid trans-{4-[2-(4-benzoyl-4-fluoro-piperidin-1-yl)-ethyl]-cyclohexyl}-amide], the Ki in experiment [1] was found to be 23 nM; in experiment [2] it was 192 nM; in experiment [3] it was 6 nM.
Take `Cc1ccc(NC(=O)N[C@H]2CC[C@H](CCN3CCC(C(=O)c4ccc(F)cc4)CC3)CC2)cc1` [Example 41, Trans-1-(4-{2-[4-(4-Fluoro-benzoyl)-piperidin-1-yl]-ethyl}-cyclohexyl)-3-p-tolyl-urea]: the Ki in experiment [1] was determined as 4 nM; in experiment [2], 677 nM; in experiment [3], 11 nM.
Regarding `CN(C(=O)N[C@H]1CC[C@H](CCN2CCC(C(=O)c3ccc(F)cc3)CC2)CC1)c1ccc(Cl)cc1` [Example 42, Trans-1-(4-Chloro-phenyl)-3-(4-{2-[4-(4-fluoro-benzoyl)-piperidin-1-yl]-ethyl}-cyclohexyl)-1-methyl-urea], the Ki in experiment [1] came out at 146 nM; in experiment [2] it was 352 nM; in experiment [3] it was 11 nM.
`CN(C)C(=O)N[C@H]1CC[C@H](CCN2CCC(C(=O)c3ccc(F)cc3)CC2)CC1` [Example 42A7, Trans-3-(4-{2-[4-(4-Fluoro-benzoyl)-piperidin-1-yl]-ethyl}-cyclohexyl)-1,1-dimethyl-urea]: the Ki in experiment [1] stood at 86 nM; in experiment [2], 176 nM; in experiment [3], 26 nM.
With `COCCC(=O)N[C@H]1CC[C@H](CCN2CCC(F)(C(=O)c3ccc(F)cc3)CC2)CC1` [Example 50, N-trans (4-{2-[4-Fluoro-4-(4-fluoro-benzoyl)-piperidin-1-yl]-ethyl}-cyclohexyl)-3-methoxy-propionamide], the results for the Ki in experiment [1], in experiment [2] and in experiment [3] were 29 nM, 288 nM and 2 nM, respectively.
Turning to `Cc1nc(-c2cccc(C(=O)N[C@H]3CC[C@H](CCN4CCC(O)(C(=O)c5ccc(F)cc5)CC4)CC3)c2)no1` [Example 57, N-trans (4-{2-[4-(4-Fluoro-benzoyl)-4-hydroxy-piperidin-1-yl]-ethyl}-cyclohexyl)-3-(5-methyl-[1,2,4]oxadiazol-3-yl)-benzamide], the Ki was 53 nM in experiment [1], 1330 nM in experiment [2] and 21 nM in experiment [3].
As for `COCCC(=O)N[C@H]1CC[C@H](CCN2CCC(C(=O)c3ccc(F)cc3F)CC2)CC1` [Example 58, N-trans (4-{2-[4-(2,4-Difluoro-benzoyl)-piperidin-1-yl]-ethyl}-cyclohexyl)-3-methoxy-propionamide], the Ki came to 19 nM in experiment [1], 3540 nM in experiment [2] and 80 nM in experiment [3].
For `O=C(CO)NC1CCC(CCN2CCC(C(=O)c3ccc(F)cc3F)CC2)CC1` (stereo not drawn) [Example 63A14, N-(4-{2-[4-(2,4-Difluoro-benzoyl)-piperidin-1-yl]-ethyl}-cyclohexyl)-2-hydroxy-acetamide] the same measures were 44 nM, 8540 nM and 83 nM.
With `O=C(Nc1ccc(Cl)cc1)N[C@H]1CC[C@H](CCN2CCC(C(=O)c3ccc(F)cc3F)CC2)CC1` [Example 64, 1-(4-Chloro-phenyl)-3-trans (4-{2-[4-(2,4-difluoro-benzoyl)-piperidin-1-yl]-ethyl}-cyclohexyl)-urea], the Ki in experiment [1] stood at 4 nM; in experiment [2], 4000 nM; in experiment [3], 26 nM.
Consider `CC(=O)N[C@H]1CC[C@H](CCN2CCC(C(=O)c3ccccc3Cl)CC2)CC1` [Example 72, N-trans (4-{2-[4-(2-Chloro-benzoyl)-piperidin-1-yl]-ethyl}-cyclohexyl)-acetamide], for which the Ki in experiment [1] was 39 nM; in experiment [2] it was 2130 nM; in experiment [3] it was 26 nM.
For the compound “Trans-1-(4-Chloro-phenyl)-3-(4-{2-[4-(4-fluoro-benzoyl)-piperidin-1-yl]-ethyl}-cyclohexyl)-urea [Example 39]”, the Ki in experiment [1] was determined as 2 nM; in experiment [2], 1840 nM; in experiment [3] it was 3 nM.
Regarding “Trans-1-(4-Ethoxy-phenyl)-3-(4-{2-[4-(4-fluoro-benzoyl)-piperidin-1-yl]-ethyl}-cyclohexyl)-urea [Example 40]”, the Ki in experiment [1] was 8 nM; in experiment [2], 502 nM; in experiment [3], 9 nM.
